Tested on: D. melanogaster
Assay: D. melanogaster adult survival assay
Format: in vivo
Experimental: Survival assays were conducted independently with adult D. melanogaster in two laboratories. In the first laboratory, all trials used an yw marked wild-type strain. […] Newly eclosed adults were placed in 1L demography cages with approximately 75 males and 75 females. Three to four replicate 1L demography cages were used for each treatment group in each trial. Every two days, dead flies were removed and scored, and food vials were replenished. Food vials contained cornmeal-sugar-yeast diet with SAF yeast as either 2% or 3% by weight. […] Fresh stock solutions and adult media were prepared weekly. In the second laboratory, lifespan trials were conducted with the wild type strain Canton-S, dSir2^4.5 and […], University of Oregon), […], Stockholm University, Sweden), and dSir2^KG00871 (Drosophila Stock Center, Bloomington, Ind.). Larvae for all tests were reared on standard cornmeal-sugar-yeast diet. […] In all trials, 20 males with 20 females were placed into each of 10 vials/treatment group. Every two days, flies were passed into new vials and dead flies were counted. […] Fresh stock solution and adult media was prepared weekly.

Oc1ccc(/C=C/c2cc(O)cc(O)c2)cc1 [Resveratrol, 3,5,4′-Trihydroxy-trans-stilbene]
lifespan increase (up to) (Canton-S/dSir2^KG0087): up to 17%
lifespan in flies lacking or severely decreased in dSir2 (dSir2^4.5/dSir2^5.26 or dSir2^17/dSir2^KG00871, 100 μM): failed to extend lifespan
longevity increase in flies homozygous for a hypomorphic dSir2 allele (dSir2^KG0087/dSir2^KG0087): small but statistically significant amount
longevity on restricted diet (restricted diet): neither resveratrol nor fisetin further increased longevity
lifespan extension (up to) (wild type, males and females, independent tests): up to 29%

From patent publication US7544497B2, “Compositions for manipulating the lifespan and stress response of cells and organisms” (President and Fellows of Harvard College, priority 2003, dated 2009)
